Target: T1, Py235 (reticulocyte binding protein), nucleotide binding domain NBD94 (Plasmodium yoelii, UniProt Q7RPU0)
T1 construct: gene PY01365
Assay: fluorescence correlation spectroscopy titration

Substance	Kd
EDA-ADP ATTO-647N	331 ± 1.8 µM
EDA-ATP ATTO-647N	228 ± 2.3 µM

From PMC2818847 (PLoS ONE, 2010)
